Data set [1] has as its system New Zealand rabbits. The conditions noted are these: rabbit, in vivo.
The conditions of data set [2]: reported; cited from earlier work.

Structures are written as SMILES.

For the compound `CCCCCCCCCCCCOS(=O)(=O)[O-].[Na+]` [SDS 5%, sodium dodecyl sulfate], in data set [1], the “Overall Edema Score” value came out at 0.60 and the “Overall Erythema Score” value was determined as 0.20.

As to `C[C@@H](C(=O)O)c1cccc(C(=O)c2ccccc2)c1` (single isomer, unassigned) [R-enantiomer], in data set [2], the “anti-inflammatory and antipyretic activities” value was “little or no”.

For the compound `C[C@H](C(=O)O)c1cccc(C(=O)c2ccccc2)c1` (single isomer, unassigned) [S-enantiomer], in data set [2], the “potency relative to the racemate” value is “approximately twice as potent as the racemate”.

(Values after patent US20180207094A1, “IMPROVED TOPICAL KETOPROFEN FORMULATIONS” (Elliptical Therapeutics, LLC, priority 2015, published 2018).)
